Assay results as given in patent publication US20220369641A1, “MOLECULAR COMPLEXES” (priority 2019, published 2022).
Converted amounts (≈) assume the structure as drawn.

Legend:
[1] = Thermodynamic (aqueous) solubility, 24 hours at 25° C., HPLC quantitation; type: physicochemical; conditions: for solubility thermodynamic at 24 h: thermodynamic from solid
Protocol: The suspension was equilibrated at 25° C., on a Heidolph plate shaker set to 750 rpm for 24 hours. The pH of the sample solutions was periodically checked and, if required, adjusted with 0.2M NaOH to ensure that the desired pH was maintained (±0.05) throughout. The pH of the saturated solution after this time was measured and the suspension filtered through a glass fibre C filter (particle retention 1.2 μm) and diluted appropriately.
Quantitation was by HPLC with reference to a standard solution of approximately 0.15 mg/ml in 1:1 MeCN/H2O. Different volumes of the standard, diluted and undiluted sample solutions were injected.
Different volumes of the standard, diluted and undiluted sample solutions were injected. The solubility was calculated using the peak areas determined by integration of the peak found at the same retention time as the principal peak in the standard injection.
Analysis was performed on an Agilent HP1100 series system equipped with a diode array detector and using ChemStation software.

[2] = Intrinsic dissolution rate (IDR), Sirius inForm, compressed discs; type: physicochemical; conditions: 37° C., pH 5.0 media, 1 hour, 6 mm disc
Protocol: IDR Method Ca. 40 mg material was compressed under 100 kg for 2 minutes to form non-disintegrating discs. The discs were then plugged with a bung so that only one surface was exposed to the media during analysis, and transferred to the dissolution apparatus (Sirius inForm). The volume of the assay was 40 ml and a stir speed of 225 rpm was used. Analysis was performed at 37° C. in pH 5.0 media for 1 hour with UV spectra collected every 30 seconds, using a 20 mm path length probe.

[3] = Media DI Water, pH 7.8, 25° C., 24 hours, final pH 5.24-5.42

With `COc1c(Cl)ccc(Cl)c1C(=O)O` [Dicamba freeform, 3,6-Dichloro-2-methoxybenzoic acid] as the molecule, how does the solubility thermodynamic at 24 h ([1]; pH 4.0 acetic acid/sodium acetate media, aqueous buffer, pH 4.0 media (42.4 ml 0.1 M acetic acid mixed with 7.6 ml 0.1 M sodium acetate), 25° C., 24 hours, read-out: Thermodynamic solubility of second component) read?
Its solubility thermodynamic at 24 h is over 13800 µg/mL.

What does the source list for `Nc1c(Cl)c(F)nc(OCC(=O)O)c1Cl` [Fluroxypyr freeform, Fluroxypyr]?
IDR of second component [2]: 956.9 μg/min/cm^2; solubility thermodynamic at 24 h ([1]; 25 °C, pH 4.04, water): 290 µg/mL (≈ 1140 µM)

For “Pinoxaden:2,4-D (1:1) Molecular Complex [Example 3]”, which “Thermodynamic solubility of pinoxaden component” value [1, 3] is on record?
Its value is 200 µg/mL.

What about the “Thermodynamic solubility of second component” value [1, 3] of the same molecule?
Its value is 120 µg/mL.

With `CCc1cc(C)cc(CC)c1-c1c(OC(=O)C(C)(C)C)n2n(c1=O)CCOCC2` [Pinoxaden freeform, [8-(2,6-diethyl-4-methylphenyl)-7-oxo-1,2,4,5-tetrahydropyrazolo[1,2-d][1,4,5]oxadiazepin-9-yl] 2,2-dimethylpropanoate] as the molecule, how does the “IDR of pinoxaden component” value [2] read?
Its value is 69.4 μg/min/cm^2.

And the solubility thermodynamic at 24 h ([1]; aqueous buffer, pH 4.0 media (42.4 ml 0.1 M acetic acid mixed with 7.6 ml 0.1 M sodium acetate), 25° C., 24 hours, read-out: Thermodynamic solubility of pinoxaden component)?
Its solubility thermodynamic at 24 h is 280 µg/mL (≈ 699 µM).

What about the solubility thermodynamic at 24 h ([1]; Media DI Water, 25° C., 24 hours, final pH 3.97-4.10, read-out: Thermodynamic solubility of pinoxaden component) of the same molecule?
The solubility thermodynamic at 24 h was about 230 µg/mL (≈ 574 µM).
